The record followed here is ChEMBL document CHEMBL1125371, “Inhibition of human leukocyte elastase (HLE) by N-substituted peptidyl trifluoromethyl ketones” (J Med Chem, 1992).

For experiment [1], the system named is Cricetinae gen. sp. Kind of experiment: Compound was evaluated for inhibition of Elastase-induced Pulmonary hemorrhage (EPH) in hamsters at the dose of 20 micro/mL). Type of experiment: functional. Also noted: unit not given here.
In experiment [2] the target is T1, Neutrophil elastase (Homo sapiens, UniProt P08246).
T1 sequence (P08246 whole entry): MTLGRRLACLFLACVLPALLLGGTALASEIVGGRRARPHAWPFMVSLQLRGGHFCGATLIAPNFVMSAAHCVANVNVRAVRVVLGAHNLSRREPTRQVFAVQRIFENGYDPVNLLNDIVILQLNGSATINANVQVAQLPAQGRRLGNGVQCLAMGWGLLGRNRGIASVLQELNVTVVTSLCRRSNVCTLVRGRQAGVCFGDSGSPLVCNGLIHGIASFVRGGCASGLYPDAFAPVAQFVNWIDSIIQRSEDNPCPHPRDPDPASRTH
Description: In vitro inhibitory activity against human leukocyte elastase.

The subject of experiment [3] is Cricetinae gen. sp. Kind of experiment: Compound was evaluated for inhibition of Elastase-induced Pulmonary hemorrhage (EPH) in hamsters at the dose of 10 micro/mL). Type of experiment: functional.
Experiment [4] concerns Cricetinae gen. sp. Kind of experiment: Compound was evaluated for inhibition of Elastase-induced Pulmonary hemorrhage (EPH) in hamsters at the dose of 3 micro/mL). Type of experiment: functional.
The test system of experiment [5] is Cricetinae gen. sp. Kind of experiment: Compound was evaluated for inhibition of Elastase-induced Pulmonary hemorrhage (EPH) in hamsters at the dose of 30 micro/mL). Format: functional.
The subject of experiment [6] is Cricetinae gen. sp. Kind of experiment: Compound was evaluated for inhibition of Elastase-induced Pulmonary hemorrhage (EPH) in hamsters at the dose of 1 micro/mL). Format: functional.
Experiment [7] deals with Cricetinae gen. sp. Description: Compound was evaluated for inhibition of Elastase-induced Pulmonary hemorrhage (EPH) in hamsters at the dose of 100 micro/mL). Format: functional.

Square brackets hold non-standard residues; d marks the D form. Peptide text beside a SMILES is read from it. * marks the point of attachment. ξ: configuration not given here. Cbz = O=C(OCc1ccccc1)*; Boc = CC(C)(C)OC(=O)*; ξV = CC(C)C(N)C(=O)O; CF3 = FC(F)(F)*; Sar = CNCC(=O)O

As usually defined, the IC50 is the concentration that inhibits the measured activity by half.

In turn, `CC(C)C(NC(=O)C1Cc2ccccc2CN1C(=O)[C@@H](NC(=O)c1ccc(C(=O)NS(=O)(=O)c2ccc(Cl)cc2)cc1)C(C)C)C(=O)C(F)(F)F` (stereo partly drawn) registered a Max hemorrhage in experiment [1] of 88.4.

Turning to `CC(C)C(NC(=O)CN(C(=O)[C@@H](NC(=O)c1ccc(C(=O)NS(=O)(=O)c2ccc(Cl)cc2)cc1)C(C)C)C1CCCCCC1)C(=O)C(F)(F)F` (stereo partly drawn), the Max hemorrhage in experiment [1] is given as 84.3. Besides, 175 nM corresponded to half-maximal inhibition in experiment [2] (IC50). Regarding `CCOC(=O)CCC(=O)Nc1nc(/C(=N\OC)C(=O)N[C@H](C(=O)N(CC(=O)NC(C(=O)C(F)(F)F)C(C)C)C2Cc3ccccc3C2)C(C)C)cs1` (stereo partly drawn), 452 nM corresponded to half-maximal inhibition in experiment [2] (IC50). As for `CC(C)C(NC(=O)CNC(=O)[C@@H](NC(=O)c1ccc(C(=O)NS(=O)(=O)c2ccc(Cl)cc2)cc1)C(C)C)C(=O)C(F)(F)F` (stereo partly drawn), the Max hemorrhage in experiment [1] was 85.1. Besides, in experiment [2], the IC50 amounted to 73 nM. In the case of `CC(C)C(NCCN(C(=O)[C@@H](NC(=O)c1ccc(C(=O)NS(=O)(=O)c2ccc(Cl)cc2)cc1)C(C)C)C1Cc2ccccc2C1)C(=O)C(F)(F)F` (stereo partly drawn), the IC50 in experiment [2] was 5000 nM. For the same molecule, in experiment [3], the “Inhibition of elastase-induced pulmonary hemorrhage” value (from here on “Inhibition”) is 2.7. In turn, `CC(C)C(NC(=O)CN(C)C(=O)[C@@H](NC(=O)c1ccc(C(=O)NS(=O)(=O)c2ccc(Cl)cc2)cc1)C(C)C)C(=O)C(F)(F)F` (stereo partly drawn) yielded an IC50 in experiment [2] of 52 nM. Consider `CC(C)C(NC(=O)CN(Cc1ccccc1)C(=O)[C@@H](NC(=O)c1ccc(C(=O)NS(=O)(=O)c2ccc(Cl)cc2)cc1)C(C)C)C(=O)C(F)(F)F` (stereo partly drawn), for which inhibition in experiment [2] was half-maximal at 217 nM (IC50).

For the molecule `CC(C)[C@H](NC(=O)CN(C(=O)[C@@H](NC(=O)c1ccc(C(=O)NS(=O)(=O)c2ccc(Cl)cc2)cc1)C(C)C)C1Cc2ccccc2C1)C(=O)c1ccc(C(F)(F)F)cc1`, the midpoint of inhibition in experiment [2], the IC50, lay at 5100 nM. Also, in experiment [3], the “Inhibition” value was 7.7.

Regarding `CC(C)C(NC(=O)CN(C(=O)[C@@H](NC(=O)c1ccc(C(=O)NS(=O)(=O)c2ccc(Br)cc2)cc1)C(C)C)C1Cc2ccccc2C1)C(=O)C(F)(F)F` (stereo partly drawn), inhibition in experiment [2] was half-maximal at 149 nM (IC50). As for `CC(C)[C@H](NC(=O)OCc1ccccc1)C(=O)N(CC(=O)NCC(=O)C(F)(F)F)C1Cc2ccccc2C1`, the IC50 in experiment [2] was more than 5000 nM.

`CC(NC(=O)CN(C(=O)[C@@H](NC(=O)c1ccc(C(=O)NS(=O)(=O)c2ccc(Cl)cc2)cc1)C(C)C)C1Cc2ccccc2C1)C(=O)C(F)(F)F` (stereo partly drawn): the IC50 in experiment [2] was found to be 817 nM.

As to `CCOC(=O)N1CCC(N(CC(=O)NC(C(=O)C(F)(F)F)C(C)C)C(=O)[C@@H](NC(=O)c2ccc(C(=O)NS(=O)(=O)c3ccc(Cl)cc3)cc2)C(C)C)CC1` (stereo partly drawn), in experiment [1], the Max hemorrhage came out at 98.4. Further, the midpoint of inhibition in experiment [2], the IC50, lay at 57 nM. With `CC(C)C(NCCN(C(=O)[C@@H](NC(=O)OC(C)(C)C)C(C)C)C1Cc2ccccc2C1)C(=O)C(F)(F)F` (stereo partly drawn), in experiment [2], the IC50 was more than 5000 nM. For the molecule `CC(C)C(NC(=O)CN(C(=O)[C@@H](NC(=O)c1ccc(C(=O)NS(=O)(=O)c2ccc(Cl)cc2)cc1)C(C)C)C1Cc2ccccc2C1)C(=O)C(F)(F)F` (stereo partly drawn), the Max hemorrhage in experiment [4] is 58.1; in experiment [5], 99.3. For the same molecule, the “Inhibition” value in experiment [3] is 90.5. The molecule `CC(C)C(NC(=O)CN(C(=O)[C@@H](NC(=O)OCc1ccccc1)C(C)C)C1Cc2ccccc2C1)C(=O)C(F)(F)F` (stereo partly drawn) had a Max hemorrhage in experiment [1] of 24.2.

Consider `CC(C)C(NC(=O)c1ccc(C(=O)NS(=O)(=O)c2ccc(Br)cc2)cc1)C(=O)N1CCC[C@H]1C(=O)N[C@H](C(=O)C(F)(F)F)C(C)C` (stereo partly drawn), for which the results for the Max hemorrhage in experiment [4] and in experiment [6] were 79.4 and 33.3, respectively. Moreover, the “Inhibition” value in experiment [3] stood at 98.5. In experiment [7], `CC(=O)OCC1=C(C(=O)OC(C)(C)C)N2C(=O)[C@@H](C(C)=O)C2S(=O)(=O)C1` (stereo partly drawn) yielded a Max hemorrhage of 0. For `CC(C)C(NC(=O)CN(CC1CCCO1)C(=O)[C@@H](NC(=O)c1ccc(C(=O)NS(=O)(=O)c2ccc(Cl)cc2)cc1)C(C)C)C(=O)C(F)(F)F` (stereo partly drawn), the IC50 in experiment [2] stood at 30 nM. In experiment [2], `CC(C)[C@H](NC(=O)c1ccc(C(=O)NS(=O)(=O)c2ccc(Cl)cc2)cc1)C(=O)N(CC(=O)NC(C)(C)C(=O)C(F)(F)F)C1Cc2ccccc2C1` showed an IC50 of more than 5000 nM. For the molecule `CC(C)[C@H](NC(=O)CN(C(=O)[C@@H](NC(=O)OCc1ccccc1)C(C)C)C1Cc2ccccc2C1)C(=O)c1ccc(C(F)(F)F)cc1`, the IC50 in experiment [2] was more than 5000 nM. In turn, `CC(C)C(NC(=O)OCc1ccccc1)C(=O)C(F)(F)F` (stereo not drawn) gave an IC50 in experiment [2] of more than 5000 nM. In experiment [2], `COc1ccc(CCN(CC(=O)NC(C(=O)C(F)(F)F)C(C)C)C(=O)[C@@H](NC(=O)c2ccc(C(=O)NS(=O)(=O)c3ccc(Cl)cc3)cc2)C(C)C)cc1OC` (stereo partly drawn) returned an IC50 of 84 nM.

Consider `CC(C)[C@H](NC(=O)c1ccc(C(=O)NS(=O)(=O)c2ccc(Cl)cc2)cc1)C(=O)N(CC(=O)NC(Cc1ccccc1)C(=O)C(F)(F)F)C1Cc2ccccc2C1` (stereo partly drawn), for which the Max hemorrhage in experiment [1] worked out at 43.8. For the same molecule, the concentration for half-maximal inhibition (IC50) in experiment [2] was more than 5000 nM. The corresponding values for `CC(C)C(NC(=O)CN(C(=O)[C@@H](NC(=O)c1ccc(C(=O)NS(=O)(=O)c2ccc(Cl)cc2)cc1)C(C)C)C1CCCC1)C(=O)C(F)(F)F` (stereo partly drawn) are 99.2 and 92 nM. `CC(C)C(NC(=O)CN(C(=O)OCc1ccccc1)C1Cc2ccccc2C1)C(=O)C(F)(F)F` (stereo not drawn) gave an IC50 in experiment [2] of more than 5000 nM. For the molecule `CCOC(=O)N1CCC(N(CC(=O)NC(C(=O)C(F)(F)F)C(C)C)C(=O)[C@@H](NC(=O)OCc2ccccc2)C(C)C)CC1` (stereo partly drawn), the IC50 in experiment [2] amounted to 507 nM.

Regarding `CC(C)C(NC(=O)CN(C(=O)[C@@H](NC(=O)c1ccc(C(=O)NS(=O)(=O)c2ccc(Cl)cc2)cc1)C(C)C)C1CCCCCCC1)C(=O)C(F)(F)F` (stereo partly drawn), it took 67 nM to reach half-maximal inhibition in experiment [2] (IC50). Moreover, in experiment [3], the “Inhibition” value is 96.7. The molecule `CC(C)C(NC(=O)CN(Cc1ccco1)C(=O)[C@@H](NC(=O)c1ccc(C(=O)NS(=O)(=O)c2ccc(Cl)cc2)cc1)C(C)C)C(=O)C(F)(F)F` (stereo partly drawn) came in with an IC50 in experiment [2] of 138 nM. Moreover, the “Inhibition” value in experiment [3] amounted to 96.2. Take `CC(C)C(NC(=O)C1CCCN1C(=O)[C@@H](NC(=O)OC(C)(C)C)C(C)C)C(=O)C(F)(F)F` (stereo partly drawn): in experiment [2], the IC50 was 65 nM.

As to `CC(C)C(NC(=O)CN(C(=O)[C@@H](NC(=O)c1ccc(C(=O)NS(=O)(=O)c2ccc(Cl)cc2)cc1)C(C)C)C1CC2CCC1C2)C(=O)C(F)(F)F` (stereo partly drawn), in experiment [1], the Max hemorrhage is recorded as 93.8.

In the case of `CC(C)C(NC(=O)[C@H]1CCCN1C(=O)[C@@H](NC(=O)OC(C)(C)C)C(C)C)C(=O)C(F)(F)F` (stereo partly drawn), in experiment [2], the half-inhibitory concentration (IC50) was 172 nM. In turn, `CC(C)C(NC(=O)CNC(=O)[C@@H](NC(=O)OC(C)(C)C)C(C)C)C(=O)C(F)(F)F` (stereo partly drawn) (Boc-Val-Gly-[ξV]-CF3) came in with an IC50 in experiment [2] of 153 nM. Molecule `CC(C)C(NC(=O)CN(C)C(=O)[C@@H](NC(=O)OCc1ccccc1)C(C)C)C(=O)C(F)(F)F` (stereo partly drawn) (Cbz-Val-[Sar]-[ξV]-CF3) showed an IC50 in experiment [2] of 153 nM. On the same count and under the same terms, to `CC(C)C(NC(=O)C1Cc2ccccc2CN1C(=O)[C@@H](NC(=O)OCc1ccccc1)C(C)C)C(=O)C(F)(F)F` (stereo in doubt; 20y) belongs 233 nM; to `CC(C)C(NC(=O)C1Cc2ccccc2CN1C(=O)[C@@H](NC(=O)OCc1ccccc1)C(C)C)C(=O)C(F)(F)F` (stereo in doubt; 20z), 73 nM.
